Measured values: patent publication US20250115620A1, “BRIDGED TRICYCLIC CARBAMOYLPYRIDONE COMPOUNDS AND USES THEREOF” (Gilead Sciences, Inc., priority 2022, published 2025)
pEC50: −log10 of the molar value. Read-outs that look alike come from different tables or passages of the source.

Experiments:
HIV-1 (IIIB) = assay: microbe, parasite or virus in culture; assay type: cell-based; conditions: HIV-1 (IIIB) in MT-4 cells, 5 days incubation, Cell Titer Glo, read-out: MT4 EC50
pLAI reporter virus = assay: microbe, parasite or virus in culture; assay type: cell-based, HIV
in vitro = conditions: human, uninfected MT-4 cells
MT-4 cells = assay: Cytotoxicity assay in MT-4 cells; conditions: uninfected MT-4 cells
[1] = Half life, PK in monkeys after intravenous infusion; assay type: in vivo; conditions: cynomolgus, monkey, single-dose intravenous infusion for 30 minutes, plasma, read-out: Cyno half-life (converted)
Description: Test compound PK was determined in monkeys (Labcorp, Madison, WI) following a single-dose intravenous infusion for 30 minutes. The dosing vehicle was a mixture of N-methylpyrrolidone, polyethylene glycol 300, and water for intravenous administration in monkeys. […] Nonclinical plasma samples were prepared by addition of 200 μl cold acetonitrile/internal standard solution to 96-well plates containing 50 μl aliquots of each plasma sample. After protein precipitation, each of the supernatants (50 μl) were transferred to clean 96-well plates and diluted with 450 μl of water. The sample injection volume was 2 μl. Samples were analyzed by a multiple reaction monitoring LC-MS/MS method. […] Thermo Fisher Scientific), and the ABSciex QTRAP5500 Mass Spectrometer LC-MS/MS system. […] The following plasma PK parameters were estimated in nonclinical species (as appropriate): observed peak plasma concentration (Cmax), time to reach Cmax (Tmax), last quantifiable plasma concentration (Clast), t1/2, time of Clast (Tlast), area under the plasma concentration-time curve (AUC) from time 0 [NT], AUC from time 0 to infinity (AUCinf), CL, mean residence time (MRT), and volume of distribution at steady state (Vss).

E138K/Q148K = assay: HIV double mutant assay in MT-4 cells; assay type: cell-based; conditions: E138K/Q148K vs wild type HXB2, MT-4 cells, 5 day incubation
Description: (§1) The HIV double mutant assay assesses the changes in efficacy of antiviral compounds against viral mutants compared to wild type. Each of the three mutant virus strains in this panel contain two amino acid substitutions ([…], E138K/Q148K and E92Q/N155H) of the parental HXB2. Test compounds and controls were serially diluted and spotted in replicates into 384 well black assay plates using acoustic transfer (Echo). Replicate sets of plates were made for each strain. MT-4 cells were grown in batch, centrifuged and resuspended in fresh CCM media (RPMI w/10% FBS, 1% PS) at 2×10^6 cells/ml. Cells were batch infected with each mutant strain at optimized volumes (currently HXB2 25 ul/ml; […], E138K/Q148K and E92Q/N155H at 40 ul/ml cells). The size of each infection mix was based on number of sample plates to be tested. Each infection mix was transferred into 5 ml closed tubes and nutated rapidly on a shaker at 37 deg. incubator for 1 hour. The infection mixes were then diluted 25× in fresh CCM media then added to assay plates at 40 ul per well using a Viaflo 384 pipettor. After 5 day incubation at 37 degrees in a CO2 incubator, assay plates were processed with Cell-titer glo reagent using a ViaFlo 384 with an addition/mixing program. Plates were read immediately on Envision reader. Assay signals were plotted and dose response curves generated to determine individual compound EC50s. The effect of each mutation was assessed by comparing EC50s of wild type and mutant strains.

E92Q/N155H = assay: HIV double mutant assay in MT-4 cells; assay type: cell-based; conditions: E92Q/N155H vs wild type HXB2, MT-4 cells, 5 day incubation
Description: as §1

G140S/Q148R = assay: HIV double mutant assay in MT-4 cells; assay type: cell-based; conditions: G140S/Q148R vs wild type HXB2, MT-4 cells, 5 day incubation
Description: as §1

[2] = Human immunodeficiency virus 1, IIIB, MT4, 120 h
[3] = Human immunodeficiency virus 1, MT4, 72 h, read-out: RLUC CCM EC50
[4] = Human immunodeficiency virus 1, MT4, 72 h, read-out: RLUC 50% HS EC50

`CC1=NN(c2ccccc2)C2(CC[C@H](C)N3C[C@H]2n2cc(C(=O)NCc4c(F)cc(F)cc4F)c(=O)c(O)c2C3=O)C1` (single isomer, unassigned) [Example 90, (3′S,7′R)-12′-hydroxy-3′,5-dimethyl-1′,11′-dioxo-2-phenyl-N-(2,4,6-trifluorobenzyl)-1′,2,4,4′,5′,11′-hexahydro-3′H,7′H-spiro[pyrazole-3,6′-[2,7]methanopyrido[1,2-a][1,4]diazonine]-10′-carboxamide] gave a pEC50 (HIV-1 (IIIB)) of 8.49, a pEC50 (HIV-1 (IIIB); [2]) of 8.37 and a pEC50 (pLAI reporter virus; [3]) of 8.89. For the same compound, the pEC50 (pLAI reporter virus; read-out: RLUC CCM EC50) was 8.92, the CC50 at 5 days (in vitro) was 22300 nM and the CC50 (MT-4 cells) was 20000 nM.
Compound `CC1=NO[C@@]2(CC[C@H](C)N3C[C@H]2n2cc(C(=O)NCc4ccc(F)cc4F)c(=O)c(O)c2C3=O)C1` [Example 1, (3'S,5S,7′R)—N-(2,4-difluorobenzyl)-12′-hydroxy-3,3′-dimethyl-1′,11′-dioxo-1′,4′,5′,11′-tetrahydro-3′H,4H,7′H-spiro[isoxazole-5,6′-[2,7]methanopyrido[1,2-a][1,4]diazonine]-10′-carboxamide] has a pEC50 (HIV-1 (IIIB); [2]) of 9.10, a pEC50 (pLAI reporter virus; [4]) of 7.04 and a pEC50 (pLAI reporter virus; [3]) of 9.52. The pEC50 (pLAI reporter virus; read-out: RLUC CCM EC50) was 9.60, the half-life [1] was 29 h and the “Double Mutant Shift (fold over wild type)” value (E138K/Q148K) was 3×. The “Double Mutant Shift (fold over wild type)” value (E92Q/N155H) was 1×, the “Double Mutant Shift (fold over wild type)” value (G140S/Q148R) was 4× and the CC50 at 5 days (in vitro) was 20400 nM.
In the case of `COC1=NO[C@@]2(CC[C@H](C)N3C[C@H]2n2cc(C(=O)NCc4ccc(F)cc4F)c(=O)c(O)c2C3=O)C1` [Example 40, (3′S,5S,7′R)—N-(2,4-difluorobenzyl)-12′-hydroxy-3-methoxy-3′-methyl-1′,11′-dioxo-1′,4′,5′,11′-tetrahydro-3′H,4H,7′H-spiro[isoxazole-5,6′-[2,7]methanopyrido[1,2-a][1,4]diazonine]-10′-carboxamide], the pEC50 (HIV-1 (IIIB); [2]) was 9.10, the pEC50 (pLAI reporter virus; [4]) was 7.65 and the pEC50 (pLAI reporter virus; [3]) was 9.70. For the same compound, the half-life [1] was 12 h, the “Double Mutant Shift (fold over wild type)” value (E138K/Q148K) was 4× and the “Double Mutant Shift (fold over wild type)” value (E92Q/N155H) was 1×. For the same compound, the “Double Mutant Shift (fold over wild type)” value (G140S/Q148R) was 5× and the CC50 at 5 days (in vitro) was 34100 nM.
`O=C(NCc1c(F)cc(F)cc1F)c1cn2c(c(O)c1=O)C(=O)N1CCCC[C@H]2C1` [Reference Compound A] gave a pEC50 (HIV-1 (IIIB); [2]) of 8.96, a pEC50 (pLAI reporter virus; [4]) of 8.70 and a pEC50 (pLAI reporter virus; [3]) of 9.46. For the same compound, the half-life [1] was 3 h, the “Double Mutant Shift (fold over wild type)” value (E138K/Q148K) was 13× and the “Double Mutant Shift (fold over wild type)” value (E92Q/N155H) was 2×. The “Double Mutant Shift (fold over wild type)” value (G140S/Q148R) was 10×.
`O=C(NCc1ccc(F)cc1F)c1cn2c(c(O)c1=O)C(=O)N1CCCC[C@H]2C1` [Reference Compound B] showed a pEC50 (HIV-1 (IIIB); [2]) of 8.82, a pEC50 (pLAI reporter virus; [4]) of 8.96 and a pEC50 (pLAI reporter virus; [3]) of 9.55. The half-life [1] was 5 h, the “Double Mutant Shift (fold over wild type)” value (E138K/Q148K) was 18× and the “Double Mutant Shift (fold over wild type)” value (E92Q/N155H) was 3×. The “Double Mutant Shift (fold over wild type)” value (G140S/Q148R) was 12×.
Work on `O=C(NCc1ccc(F)cc1F)c1cn2c(c(O)c1=O)C(=O)N1CCCC3(CC3)[C@H]2C1` [Reference Compound C, reference compound] yielded a pEC50 (HIV-1 (IIIB); [2]) of 8.92, a pEC50 (pLAI reporter virus; [4]) of 8.70 and a pEC50 (pLAI reporter virus; [3]) of 9.60. The “Double Mutant Shift (fold over wild type)” value (E138K/Q148K) was 3×, the “Double Mutant Shift (fold over wild type)” value (E92Q/N155H) was 2× and the “Double Mutant Shift (fold over wild type)” value (G140S/Q148R) was 5×.
`C[C@H]1CCC[C@H]2CN1C(=O)c1c(O)c(=O)c(C(=O)NCc3ccc(F)cc3F)cn12` [Reference Compound D] gave a pEC50 (HIV-1 (IIIB); [2]) of 8.89, a pEC50 (pLAI reporter virus; [4]) of 8.12 and a pEC50 (pLAI reporter virus; [3]) of 9.66. For the same compound, the half-life [1] was 3 h, the “Double Mutant Shift (fold over wild type)” value (E138K/Q148K) was 6× and the “Double Mutant Shift (fold over wild type)” value (E92Q/N155H) was 1×. For the same compound, the “Double Mutant Shift (fold over wild type)” value (G140S/Q148R) was 5×.
Work on “(3′S,5S,7′R)—N-((2,4-difluorophenyl)methyl-d2)-12′-hydroxy-3,3′-dimethyl-1′,11′-dioxo-1′,4′,5′,11′-tetrahydro-3′H,4H,7′H-spiro[isoxazole-5,6′-[2,7]methanopyrido[1,2-a][1,4]diazonine]-10′-carboxamide-N′-^15N [Example 151]” yielded a pEC50 (HIV-1 (IIIB)) of 8.74, a pEC50 (pLAI reporter virus; CCM media (RPMI/10% FBS), MT-4 cells, 3 days, read-out: RLUC CCM EC50) of 9.52 and a pEC50 (pLAI reporter virus; read-out: RLUC 50% HS EC50, 50% human serum media, MT-4 cells, 3 days) of 7.16. It also gave a CC50 (MT-4 cells) of 13800 nM.
